In patent US20080207700A1, “Amino Acid Salts of Rosiglitazone” (priority 2005, published 2008):

Assay: physchem
Description: The following buffer solutions were used:
Thereafter, the suspensions were treated in an ultrasonic bath for 1 minute, the pH was checked and, where necessary, readjusted to the value given respectively below. Then, the solutions were 0.45 μm filtrated.
The absorption of thus produced solutions was measured at 345 nm.

| solubility at 1 min (pH 11.8, aqueous buffer, thermodynamic from solid) [mg/mL] | water solubility (pH 6) [mg/mL] | SMILES |
| --- | --- | --- |
| > 50 |  | CN(CCOc1ccc(CC2SC(=O)NC2=O)cc1)c1ccccn1 (centres unmarked) [Base, 5-(4-/2-(N-methyl-N-(2-pyridyl)amino)ethoxy/benzyl)-2,4-thiazolidinedione] |
|  | < 0.1 | CN(CCOc1ccc(CC2SC(=O)NC2=O)cc1)c1ccccn1.O=C(O)/C=C\C(=O)O (centres unmarked) [Maleate, rosiglitazone maleate] |
